The record followed here is patent publication US20140171431A1, “AZOLE HETEROCYCLIC COMPOUND, PREPARATION METHOD, PHARMACEUTICAL COMPOSITION AND USE” (priority 2011, published 2014).

One assay addresses T1, Lp-PLA2 in rabbit serum (Oryctolagus cuniculus, UniProt G1SE06).
T1 construct: from tissue; host or cells: rabbit serum
T1 sequence (G1SE06 22-423): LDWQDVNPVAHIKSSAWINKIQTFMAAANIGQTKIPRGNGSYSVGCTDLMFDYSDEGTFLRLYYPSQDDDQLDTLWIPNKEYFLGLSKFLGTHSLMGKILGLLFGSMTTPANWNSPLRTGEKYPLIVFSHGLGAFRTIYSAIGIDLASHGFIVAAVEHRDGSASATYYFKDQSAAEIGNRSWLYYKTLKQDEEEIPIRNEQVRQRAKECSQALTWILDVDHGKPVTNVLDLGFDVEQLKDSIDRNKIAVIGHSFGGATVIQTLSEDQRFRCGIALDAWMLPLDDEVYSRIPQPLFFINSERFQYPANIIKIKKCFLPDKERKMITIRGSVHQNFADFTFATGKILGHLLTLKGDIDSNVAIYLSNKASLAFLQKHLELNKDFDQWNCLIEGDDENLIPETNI
Briefly: In vitro inhibitory activity towards the enzyme Lp-PLA2 in rabbit serum, [3H]PAF substrate. The format is biochemical. The settings on record: 100 nM.

Another assay concerns the target T2, Lp-PLA2 in human serum (Homo sapiens, UniProt Q13093).
T2 construct: from tissue
T2 sequence (Q13093 22-441): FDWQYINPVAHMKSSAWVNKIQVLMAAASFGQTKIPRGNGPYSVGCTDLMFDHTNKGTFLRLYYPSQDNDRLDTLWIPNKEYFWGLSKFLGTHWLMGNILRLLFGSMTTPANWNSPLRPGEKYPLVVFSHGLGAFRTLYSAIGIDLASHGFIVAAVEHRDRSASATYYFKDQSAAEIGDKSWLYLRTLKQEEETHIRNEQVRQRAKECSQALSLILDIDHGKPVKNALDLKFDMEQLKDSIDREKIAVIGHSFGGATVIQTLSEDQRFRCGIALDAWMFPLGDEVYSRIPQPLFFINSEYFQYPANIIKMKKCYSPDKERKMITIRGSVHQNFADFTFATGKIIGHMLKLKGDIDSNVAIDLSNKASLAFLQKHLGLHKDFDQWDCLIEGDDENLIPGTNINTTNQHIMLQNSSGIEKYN
Briefly: In vitro inhibitory activity towards the enzyme Lp-PLA2 in human serum, [3H]PAF substrate. The format is biochemical. Conditions: for inhibition at 0.01 µM: 10 nM; for inhibition at 0.1 µM: 100 nM. The procedure:
The activities of compounds were measured using [^3H] labeled platelet activating factor ([^3H]PAF, Perkinelmer, Lot NET910) as the substrate. The reaction was carried out in a system containing 50 mmol/l HEPES and 150 mmol/l NaCl (pH 7.4) in a total volume of 200 μl. First, 10 μL human plasma and 10 μl DMSO solution of the test compound were added to the system and preincubated for 10 min at 37° C. Then 20 nM [^3H]PAF was added as listed in table 1 to start the reaction and incubated for a further 10 min at 37° C. After that, 600 μl of CHCl3/MeOH (2:1) was added and the resulting mixture was mixed with vortex. After settled for a while, the mixture was centrifugated at 12000×g for 15 min. The supernatant was transferred to a new tube and 200 μl of CHCl3 was added and mixed by vortexing. The mixture was settled or centrifugated for 2 min. A 100 μl portion of the supernatant was then collected for radioactivity intensity measurement.

[1] abbreviates: rabbit serum, read-out: inhibition, %.
Where [2] appears, read: human serum, read-out: inhibition, %.
Where [3] appears, read: read-out: inhibitory rate towards the rabbit serum derived Lp-PLA2 enzyme.
The mark [4] stands for this setting: read-out: inhibitory rate towards the human serum derived Lp-PLA2 enzyme.

SMILES strings stand for the structures. Where two headings read alike, the source gives them in different places.

On to `COC(=O)C(C)(C)NCc1nnc(Cn2c(SCc3ccc(F)cc3)nc(=O)c3c2CCC3)n1Cc1ccc(-c2ccc(C(F)(F)F)cc2)cc1` [Example 85, methyl-2-((5-((2-(4-fluorobenzylthio)-4-oxo-4,5,6,7-tetrahydro-1H-cyclopenta[d]pyrimidin-1-yl)methyl)-4-((4′-(trifluoromethyl)biphenyl-4-yl)methyl)-4H-1,2,4-triazol-3-yl)methylamino)-2-methylpropanoate], for which the results for the inhibition at 0.1 µM at Lp-PLA2 in rabbit serum (setting [1]) and against Lp-PLA2 in human serum (human serum) were 77% and 91%, respectively. For the same molecule, the inhibition at 0.01 µM on Lp-PLA2 in human serum (setting [2]) was 59%.
For the molecule `CCN1CCN(Cc2nnc(Cn3c(SCc4ccc(F)cc4)nc(=O)c4c3CCC4)n2Cc2ccc(-c3ccc(C(F)(F)F)cc3)cc2)CC1` [Example 86, 1-((5-((4-ethylpiperazin-1-yl)methyl)-4-((4′-(trifluoromethyl)biphenyl-4-yl)methyl)-4H-1,2,4-triazol-3-yl)methyl)-2-(4-fluorobenzylthio)-6,7-dihydro-1H-cyclopenta[d]pyrimidin-4(5H)-one], the inhibition at 0.1 µM at Lp-PLA2 in rabbit serum (setting [1]) is 90%; on Lp-PLA2 in rabbit serum (setting [3]), greater than 90%; against Lp-PLA2 in human serum (human serum), 96%. Also, the inhibition at 0.01 µM at Lp-PLA2 in human serum (setting [2]) was 82%; at Lp-PLA2 in human serum (setting [4]), greater than 80%.
With `COC(=O)C(C)(C)N1CCN(Cc2nnc(Cn3c(SCc4ccc(F)cc4)nc(=O)c4c3CCC4)n2Cc2ccc(-c3ccc(C(F)(F)F)cc3)cc2)CC1` [Example 88, methyl-2-(4-((5-((2-(4-fluorobenzylthio)-4-oxo-4,5,6,7-tetrahydro-1H-cyclopenta[d]pyrimidin-1-yl)methyl)-4-((4′-(trifluoromethyl)biphenyl-4-yl)methyl)-4H-1,2,4-triazol-3-yl)methyl)piperazin-1-yl)-2-methylpropanoate], the inhibition at 0.1 µM at Lp-PLA2 in rabbit serum (setting [1]) stood at 67%; on Lp-PLA2 in human serum (human serum), 91%. Also, the inhibition at 0.01 µM on Lp-PLA2 in human serum (setting [2]) was 59%.
On the same counts, the results for `CN(Cc1nnc(Cn2c(SCc3ccc(F)cc3)nc(=O)c3c2CCC3)n1Cc1ccc(-c2ccc(C(F)(F)F)cc2)cc1)C1CC1` [Example 101, 1-((5-((cyclopropyl(methyl)amino)methyl)-4-((4′-(trifluoromethyl)biphenyl-4-yl)methyl)-4H-1,2,4-triazol-3-yl)methyl)-2-(4-fluorobenzylthio)-6,7-dihydro-1H-cyclopenta[d]pyrimidin-4(5H)-one] are 86%, 96% and 77%.
Consider `O=C1NCCN1CCNCc1nnc(Cn2c(SCc3ccc(F)cc3)nc(=O)c3c2CCC3)n1Cc1ccc(-c2ccc(C(F)(F)F)cc2)cc1` [Example 102, 2-(4-fluorobenzylthio)-1-((5-((2-(2-oxoimidazolidin-1-yl)ethylamino)methyl)-4-((4′-(trifluoromethyl)biphenyl-4-yl)methyl)-4H-1,2,4-triazol-3-yl)methyl)-6,7-dihydro-1H-cyclopenta[d]pyrimidin-4(5H)-one], for which the inhibition at 0.1 µM on Lp-PLA2 in rabbit serum (setting [1]) came to 97%. On Lp-PLA2 in human serum (setting [2]), the inhibition at 0.01 µM was 77%.
Consider `CN(C)C1CCN(Cc2nnc(Cn3c(SCc4ccc(F)cc4)nc(=O)c4c3CCC4)n2Cc2ccc(-c3ccc(C(F)(F)F)cc3)cc2)CC1` [Example 103, 1-((5-((4-(dimethylamino)piperidin-1-yl)methyl)-4-((4′-(trifluoromethyl)biphenyl-4-yl)methyl)-4H-1,2,4-triazol-3-yl)methyl)-2-(4-fluorobenzylthio)-6,7-dihydro-1-cyclopenta[d]pyrimidin-4(5H)-one], for which the inhibition at 0.1 µM on Lp-PLA2 in rabbit serum (setting [1]) stood at 82%; on Lp-PLA2 in human serum (human serum), 98%. The inhibition at 0.01 µM on Lp-PLA2 in human serum (setting [2]) stood at 71%.
The corresponding values for `O=c1nc(SCc2ccc(F)cc2)n(Cc2nnc(CN3CCC(F)(F)C3)n2Cc2ccc(-c3ccc(C(F)(F)F)cc3)cc2)c2c1CCC2` [Example 104, 1-((5-((3,3-difluoropyrrolidin-1-yl)methyl)-4-((4′-(trifluoromethyl)biphenyl-4-yl)methyl)-4H-1,2,4-triazol-3-yl)methyl)-2-(4-fluorobenzylthio)-6,7-dihydro-1H-cyclopenta[d]pyrimidin-4(5H)-one] are 67%, 86% and 53%.
Take `CN(C)CCNCc1nnc(Cn2c(SCc3ccc(F)cc3)nc(=O)c3c2CCC3)n1Cc1ccc(-c2ccc(C(F)(F)F)cc2)cc1` [Example 105, 1-((5-((2-(dimethylamino)ethylamino)methyl)-4-((4′-(trifluoromethyl)biphenyl-4-yl)methyl)-4H-1,2,4-triazol-3-yl)methyl)-2-(4-fluorobenzylthio)-6,7-dihydro-1H-cyclopenta[d]pyrimidin-4(5H)-one]: the inhibition at 0.1 µM on Lp-PLA2 in rabbit serum (setting [1]) is 98%. The inhibition at 0.01 µM at Lp-PLA2 in human serum (setting [2]) came to 72%.
For `CCN1CCC[C@H]1CNCc1nnc(Cn2c(SCc3ccc(F)cc3)nc(=O)c3c2CCC3)n1Cc1ccc(-c2ccc(C(F)(F)F)cc2)cc1` [Example 106, (S)-1-((5-(((1-ethylpyrrolidin-2-yl)methylamino)methyl)-4-((4′-(trifluoromethyl)biphenyl-4-yl)methyl)-4H-1,2,4-triazol-3-yl)methyl)-2-(4-fluorobenzylthio)-6,7-dihydro-1H-cyclopenta[d]pyrimidin-4(5H)-one], the inhibition at 0.1 µM on Lp-PLA2 in rabbit serum (setting [1]) is 96%; on Lp-PLA2 in rabbit serum (setting [3]), greater than 90%. Further, the inhibition at 0.01 µM is 80% at Lp-PLA2 in human serum (setting [2]) and greater than 80% at Lp-PLA2 in human serum (setting [4]).
Turning to `CN1CCN(Cc2nnc(Cn3c(SCc4ccc(F)cc4)nc(=O)c4c3CCC4)n2Cc2ccc(-c3ccc(C(F)(F)F)cc3)cc2)CC1` [Example 107, 2-(4-fluorobenzylthio)-1-((5-((4-methylpiperazin-1-yl)methyl)-4-((4′-(trifluoromethyl)biphenyl-4-yl)methyl)-4H-1,2,4-triazol-3-yl)methyl)-6,7-dihydro-1H-cyclopenta[d]pyrimidin-4(5H)-one], the results for the inhibition at 0.1 µM on Lp-PLA2 in rabbit serum (setting [1]) and against Lp-PLA2 in human serum (human serum) were 68% and 91%, respectively. On Lp-PLA2 in human serum (setting [2]), the inhibition at 0.01 µM came out at 70%.
On the same counts, the results for `CC(=O)NCc1nnc(Cn2c(SCc3ccc(F)cc3)nc(=O)c3c2CCC3)n1Cc1ccc(-c2ccc(C(F)(F)F)cc2)cc1` [Example 110, N-((5-((2-(4-fluorobenzylthio)-4-oxo-4,5,6,7-tetrahydro-1H-cyclopenta[d]pyrimidin-1-yl)methyl)-4-((4′-(trifluoromethyl)biphenyl-4-yl)methyl)-4H-1,2,4-triazol-3-yl)methyl)acetamide] are 67%, 83% and 67%.
Regarding `CCS(=O)(=O)NCc1nnc(Cn2c(SCc3ccc(F)cc3)nc(=O)c3c2CCC3)n1Cc1ccc(-c2ccc(C(F)(F)F)cc2)cc1` [Example 111, N-((5-((2-(4-fluorobenzylthio)-4-oxo-4,5,6,7-tetrahydro-1H-cyclopenta[d]pyrimidin-1-yl)methyl)-4-((4′-(trifluoromethyl)biphenyl-4-yl)methyl)-4H-1,2,4-triazol-3-yl)methyl)ethanesulfonamide], the inhibition at 0.1 µM on Lp-PLA2 in rabbit serum (setting [1]) worked out at 75%; at Lp-PLA2 in human serum (human serum) it was 92%. The inhibition at 0.01 µM at Lp-PLA2 in human serum (setting [2]) amounted to 68%.
For the molecule `O=C1NCCN1Cc1nnc(Cn2c(SCc3ccc(F)cc3)nc(=O)c3c2CCC3)n1Cc1ccc(-c2ccc(C(F)(F)F)cc2)cc1` [Example 112, 2-(4-fluorobenzylthio)-1-((5-((2-oxoimidazolidin-1-yl)methyl)-4-((4′-(trifluoromethyl)biphenyl-4-yl)methyl)-4H-1,2,4-triazol-3-yl)methyl)-6,7-dihydro-1H-cyclopenta[d]pyrimidin-4(5H)-one], the results for the inhibition at 0.1 µM on Lp-PLA2 in rabbit serum (setting [1]) and against Lp-PLA2 in human serum (human serum) were 63% and 87%, respectively. Moreover, on Lp-PLA2 in human serum (setting [2]), the inhibition at 0.01 µM was 56%.
The corresponding values for `CNC(=S)NCc1nnc(Cn2c(SCc3ccc(F)cc3)nc(=O)c3c2CCC3)n1Cc1ccc(-c2ccc(C(F)(F)F)cc2)cc1` [Example 113, 1-((5-((2-(4-fluorobenzylthio)-4-oxo-4,5,6,7-tetrahydro-1H-cyclopenta[d]pyrimidin-1-yl)methyl)-4-((4′-(trifluoromethyl)biphenyl-4-yl)methyl)-4H-1,2,4-triazol-3-yl)methyl)-3-methylthiourea] are 64%, 91% and 56%.
